Experimental data from ChEMBL document CHEMBL4373730, “Practical approaches to evaluating and optimizing brain exposure in early drug discovery” (Eur J Med Chem, 2019).

Columns and labels:
[1] = Brain to plasma partition coefficient, Kp of the compound in rat; format: ADME, organism-based; conditions: brain and plasma
in vivo = conditions: rat, brain and plasma
Description: Unbound brain-to-plasma concentration ratio in rat

| Kp [1] | Kp uu (in vivo) | Compound |
| --- | --- | --- |
| 8.5 | 0.9 | O=C1Cc2cc(CCN3CCN(c4nsc5ccccc45)CC3)c(Cl)cc2N1 [ZIPRASIDONE] |
| 8.5 | 0.9 | CN(C)CCCN1c2ccccc2Sc2ccc(Cl)cc21 [CHLORPROMAZINE] |
| 8.5 | 0.9 | OCCOCCN1CCN(C2=Nc3ccccc3Sc3ccccc32)CC1 [QUETIAPINE] |
| 8.5 | 0.9 | O=C(CCCN1CCC(O)(c2ccc(Cl)cc2)CC1)c1ccc(F)cc1 [HALOPERIDOL] |

| Compound | Kp [1] | Kp uu (in vivo) |
| --- | --- | --- |
| Cc1nc2n(c(=O)c1CCN1CCC(c3noc4cc(F)ccc34)CC1)CCCC2 [RISPERIDONE] | 8.5 | 0.9 |
| CN1CCN(C2=Nc3cc(Cl)ccc3Nc3ccccc32)CC1 [CLOZAPINE] | 8.5 | 0.9 |
